Test results from US11000033B2, “Ketone or oxime compound, and herbicide” (NISSAN CHEMICAL CORPORATION, priority 2014, dated 2021).

Assays:
Assay type in all cases: in vivo
[1] = test system: Echinochloa crus-galli var. crus-galli; experiment: Test Example 4: herbicidal effect by soil treatment (symbol H)
Method in brief: (§1)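 Seeds were sown in sterilized diluvial soil, covered with about 1.5 cm of soil, and the soil surface was sprayed with a water-diluted emulsion of the compound at a predetermined rate. Plants grew in a greenhouse at 25° C. to 30° C.; effects were scored visually 3 weeks after application.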

rice = experiment: Test Example 4: effect on crop by soil treatment (symbol b); conditions: for b: directly sowed rice plant, effect grade on crop: 320 g/ha
Method in brief: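 Plants are raised in a greenhouse (25° C. to 30° C.) from spot-sown seed, which sits under about 1.5 cm of sterilized diluvial soil in a box shared with weed species.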

Setaria viridis = experiment: Test Example 5: herbicidal effect by foliage application, plastic box (symbol G); conditions: 320 g/ha, 3 weeks after application
Method in brief: (§2)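 Leaf-applied emulsion, water-diluted to a preset herbicide dose, on two-week-old seedlings raised in a 25° C. to 30° C. greenhouse; injury rated at 3 weeks using earlier criteria.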

Cyperus difformis = experiment: Test Example 3: herbicidal effect by foliage application, Wagner pot (symbol E); conditions: application herbicide amount 320 g/ha
Method in brief: (§3)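 Alluvial soil was flooded to a depth of 0.1–0.5 cm, seeded with the weeds and rice, and kept in a greenhouse at 25–30 °C. After 14 days of growth, the foliage received a small-sprayer application of emulsion diluted to the intended rate; injury was rated at 3 weeks.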

rice plant = experiment: Test Example 5: effect on crop by foliage application, plastic box (symbol b); conditions: 320 g/ha, 3 weeks after application
Method in brief: (§4)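 Crop seed is sown alongside grass and broadleaf weed species in spots in sterilized diluvial soil, then covered to a depth of about 1.5 cm. Plants grow in a greenhouse kept at 25° C. to 30° C.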

[2] = test system: Echinochloa crus-galli var. crus-galli; experiment: Test Example 3: herbicidal effect by foliage application, Wagner pot (symbol H); conditions: application herbicide amount 320 g/ha
Method in brief: as §3

Scirpus juncoides = experiment: Test Example 2: herbicidal activity, application during weed generation in submerged conditions (symbol B); conditions: Table 23; application herbicide amount 320 g/ha; grade 0-5 by criteria of Test Example 1
Method in brief: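 Weeds emerging under flooded conditions were treated with compound formulated as an emulsion and diluted with water to the intended herbicide amount, poured onto the surface of 4 cm standing water. Seeds had been co-sown in alluvial soil; plants grew at 25° C. to 30° C. and were assessed after 3 weeks.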

Apera spica-venti = experiment: Test Example 4: herbicidal effect by soil treatment (symbol L); conditions: application herbicide amount 320 g/ha
Method in brief: as §1

corn = experiment: Test Example 4: effect on crop by soil treatment (symbol c); conditions: for c: corn, effect grade on crop: 320 g/ha
Method in brief: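 Diluvial soil (sterilized) in boxes; seeds placed spot-wise alongside weed species; ~1.5 cm covering soil. Greenhouse, 25–30° C.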

Lolium multiflorum Lam. [3] = experiment: Test Example 5: herbicidal effect by foliage application, plastic box (symbol K); conditions: 320 g/ha, 3 weeks after application
Method in brief: as §2

wheat = experiment: Test Example 5: effect on crop by foliage application, plastic box (symbol e); conditions: 320 g/ha, 3 weeks after application
Method in brief: as §4

Alopecurus myosuroides = experiment: Test Example 5: herbicidal effect by foliage application, plastic box (symbol J); conditions: 320 g/ha, 3 weeks after application
Method in brief: as §2

Avena fatua = experiment: Test Example 5: herbicidal effect by foliage application, plastic box (symbol I); conditions: 320 g/ha, 3 weeks after application
Method in brief: as §2

Lolium multiflorum Lam. [4] = experiment: Test Example 4: herbicidal effect by soil treatment (symbol K)
Method in brief: as §1

Veronica persica = experiment: Test Example 5: herbicidal effect by foliage application, plastic box (symbol R); conditions: 320 g/ha, 3 weeks after application
Method in brief: as §2

Stellaria media = experiment: Test Example 5: herbicidal effect by foliage application, plastic box (symbol P); conditions: 320 g/ha, 3 weeks after application
Method in brief: as §2

[5] = application herbicide amount 320 g/ha

Row | SMILES | H: Echinochloa crus-galli var. crus-galli, herbicidal effect grade [1, 5] | b: directly sowed rice plant, effect on crop grade (rice; [5]) | G: Setaria viridis, herbicidal effect grade (Setaria viridis) | herbicidal effect on E, grade 0-5 (Cyperus difformis) | b: directly sowed rice plant, effect on crop grade (rice plant) | herbicidal effect on H (Echinochloa crus-galli var. crus-galli), grade 0-5 [2] | Herbicidal effect grade, B: Scirpus juncoides (Scirpus juncoides) | L: Apera spica-venti, herbicidal effect grade (Apera spica-venti) | c: corn, effect on crop grade (corn; [5]) | K: Lolium multiflorum Lam., herbicidal effect grade (Lolium multiflorum Lam. [3]) | e: wheat, effect on crop grade (wheat) | J: Alopecurus myosuroides, herbicidal effect grade (Alopecurus myosuroides) | I: Avena fatua, herbicidal effect grade (Avena fatua) | K: Lolium multiflorum Lam., herbicidal effect grade (Lolium multiflorum Lam. [4]; [5]) | H: Echinochloa crus-galli var. crus-galli, herbicidal effect grade ([1]; 320 g/ha) | b: directly sowed rice plant, effect grade on crop (rice) | R: Veronica persica, herbicidal effect grade (Veronica persica) | P: Stellaria media, herbicidal effect grade (Stellaria media) | c: corn, effect grade on crop (corn) | K: Lolium multiflorum Lam., herbicidal effect grade (Lolium multiflorum Lam. [4]; 320 g/ha) | further results
1 | CC#Cc1cc(C)c(C2=C(O)CC(CC(C)=NOC)C2=O)c(C)c1 (mixture of isomers) [6-009] | 5 (Herbicidal ratio of 90% or more (almost completely withered)) | 5 (Herbicidal ratio of 90% or more (almost completely withered)) | 5 (Herbicidal ratio of 90% or more (almost completely withered)) | 0 (Herbicidal ratio of 5% or lower (almost no effect)) | 5 (Herbicidal ratio of 90% or more (almost completely withered)) | 5 (Herbicidal ratio of 90% or more (almost completely withered)) | 0 (Herbicidal ratio of 5% or lower (almost no effect)) | 5 (Herbicidal ratio of 90% or more (almost completely withered)) | 5 (Herbicidal ratio of 90% or more (almost completely withered)) | 5 (Herbicidal ratio of 90% or more (almost completely withered)) | 5 (Herbicidal ratio of 90% or more (almost completely withered)) | 5 (Herbicidal ratio of 90% or more (almost completely withered)) | 4 (Herbicidal ratio of 70% or higher and lower than 90%) | 5 (Herbicidal ratio of 90% or more (almost completely withered)) | – | – | – | – | – | – | –
2 | CON=C(C)CC1CC(OC(=O)Cc2ccc(OC)cc2)=C(c2c(C)cc(C)cc2C)C1=O (stereo not shown) [1-156] | – | – | 5 (Herbicidal ratio of 90% or more (almost completely withered)) | 5 (Herbicidal ratio of 90% or more (almost completely withered)) | 5 (Herbicidal ratio of 90% or more (almost completely withered)) | 5 (Herbicidal ratio of 90% or more (almost completely withered)) | 5 (Herbicidal ratio of 90% or more (almost completely withered)) | – | – | 5 (Herbicidal ratio of 90% or more (almost completely withered)) | 5 (Herbicidal ratio of 90% or more (almost completely withered)) | 5 (Herbicidal ratio of 90% or more (almost completely withered)) | 5 (Herbicidal ratio of 90% or more (almost completely withered)) | – | 5 (Herbicidal ratio of 90% or more (almost completely withered)) | 5 (Herbicidal ratio of 90% or more (almost completely withered)) | 4 (Herbicidal ratio of 70% or higher and lower than 90%) | 3 (Herbicidal ratio of 40% or higher and lower than 70%) | 1 (Herbicidal ratio of 5% or higher and lower than 20%) | 5 (Herbicidal ratio of 90% or more (almost completely withered)) | –
3 | CCC(=O)CCC1CC(OC)=C(c2c(C)cc(C)cc2C)C1=O (stereo not shown) [5-002] | 0 (Herbicidal ratio of 5% or lower (almost no effect)) | 0 (Herbicidal ratio of 5% or lower (almost no effect)) | 0 (Herbicidal ratio of 5% or lower (almost no effect)) | 0 (Herbicidal ratio of 5% or lower (almost no effect)) | 0 (Herbicidal ratio of 5% or lower (almost no effect)) | 0 (Herbicidal ratio of 5% or lower (almost no effect)) | 0 (Herbicidal ratio of 5% or lower (almost no effect)) | 0 (Herbicidal ratio of 5% or lower (almost no effect)) | 0 (Herbicidal ratio of 5% or lower (almost no effect)) | 0 (Herbicidal ratio of 5% or lower (almost no effect)) | 0 (Herbicidal ratio of 5% or lower (almost no effect)) | 0 (Herbicidal ratio of 5% or lower (almost no effect)) | 0 (Herbicidal ratio of 5% or lower (almost no effect)) | 0 (Herbicidal ratio of 5% or lower (almost no effect)) | – | – | – | – | – | – | –
4 | CON=C(C)CC1CC(OCC#N)=C(c2c(C)cc(C)cc2C)C1=O (stereo not shown) [1-013] | – | – | 0 (Herbicidal ratio of 5% or lower (almost no effect)) | 0 (Herbicidal ratio of 5% or lower (almost no effect)) | 2 (Herbicidal ratio of 20% or higher and lower than 40%) | 0 (Herbicidal ratio of 5% or lower (almost no effect)) | 0 (Herbicidal ratio of 5% or lower (almost no effect)) | – | – | 5 (Herbicidal ratio of 90% or more (almost completely withered)) | 0 (Herbicidal ratio of 5% or lower (almost no effect)) | 4 (Herbicidal ratio of 70% or higher and lower than 90%) | 0 (Herbicidal ratio of 5% or lower (almost no effect)) | – | – | – | 0 (Herbicidal ratio of 5% or lower (almost no effect)) | 0 (Herbicidal ratio of 5% or lower (almost no effect)) | – | – | H (Echinochloa crus-galli var. crus-galli) herbicidal effect grade [1, 5]: 0 (Herbicidal ratio of 5% or lower (almost no effect)); b (directly sowed rice plant) effect on crop grade (rice; [5]): 0 (Herbicidal ratio of 5% or lower (almost no effect)); c (corn) effect on crop grade (corn; [5]): 0 (Herbicidal ratio of 5% or lower (almost no effect)); K (Lolium multiflorum Lam.) herbicidal effect grade (Lolium multiflorum Lam. [4]; [5]): 0 (Herbicidal ratio of 5% or lower (almost no effect))
5 | CON=C(C)CC1CC(OS(=O)(=O)c2ccc(C)cc2)=C(c2c(C)cc(C)cc2C)C1=O (stereo not shown) [1-161] | – | – | 0 (Herbicidal ratio of 5% or lower (almost no effect)) | 4 (Herbicidal ratio of 70% or higher and lower than 90%) | 3 (Herbicidal ratio of 40% or higher and lower than 70%) | 4 (Herbicidal ratio of 70% or higher and lower than 90%) | 4 (Herbicidal ratio of 70% or higher and lower than 90%) | – | – | 5 (Herbicidal ratio of 90% or more (almost completely withered)) | 2 (Herbicidal ratio of 20% or higher and lower than 40%) | 5 (Herbicidal ratio of 90% or more (almost completely withered)) | 4 (Herbicidal ratio of 70% or higher and lower than 90%) | – | 0 (Herbicidal ratio of 5% or lower (almost no effect)) | 3 (Herbicidal ratio of 40% or higher and lower than 70%) | 0 (Herbicidal ratio of 5% or lower (almost no effect)) | 0 (Herbicidal ratio of 5% or lower (almost no effect)) | 0 (Herbicidal ratio of 5% or lower (almost no effect)) | 3 (Herbicidal ratio of 40% or higher and lower than 70%) | –
